Measured values from patent US4061637A, “Certain 4-aryl-5-(4-phenylpiperazino)alkyl-4-thiazolin-2-ones” (priority 1974, dated 1977).
Counter-ions that a name gives are not always drawn. Like-named read-outs stand apart in the source and are kept apart here.

Legend:
nor-adrenalin = experiment: Antagonism towards a lethal dose of nor-adrenalin in the rat (α-adrenolytic activity); format: in vivo; conditions: for ED50: po, 1 h, read-out: α-adrenolytic activity lethal NA rat ED50
Description: Antagonism towards a lethal dose of nor-adrenalin in the rat
The animals are treated with a dose of nor-adrenalin (0.5 mg/kg) which is 100% lethal in animals. The activity is calculated by the number of animals protected from death by prior administration of the drug under examination one hour before the agonist. Where possible the ED50 was calculated.

[1] = Antagonism towards electric shock convulsions in the mouse; format: in vivo; conditions: po, 0.5 h, read-out: Anti-convulsion activity, electric shock, mouse, % att.; for inhibition in vivo at 200 mg/kg: 200 mg/kg os; for inhibition in vivo at 100 mg/kg: 100 mg/kg os
Description: This is evaluated by observing the protection given by pretreatment with the drug (30 minutes) against tonic convulsions obtained by applying a 35 volt current to the eyeballs.

[2] = Cataleptic activity in the mouse; format: in vivo; conditions: for ED50: po, read-out: Cataleptic activity mouse ED50
[3] = Carrageen oedema in the conscious rat (anti-inflammatory activity); format: in vivo; conditions: for ED30: 1 h, ip, one hour before carrageen, read-out: Anti-inflammatory activity carrageenin oedema rat ED30
Description: Anti-inflammatory activity was evaluated by the method of Winter and colleagues (Proc. Soc. Exp. Biol., 111, 544, 1962) by endoperitoneally injecting the product under examination one hour before inducing oedema by injecting 0.05 ml. of a 1% suspension of carrageen (intradermally into the plantar portion of a rear paw).
The difference between the volume of the paw determined plethysmographically one hour before and three hours after the carrageen gives a quantitative estimate of the activity of the product tested. Where possible, the ED30 was calculated.

[4] = Ulcers by constriction (stress) in the rat; format: in vivo; conditions: 4 h; for responders at 30 mg/kg / responders at 10 mg/kg: read-out: Anti-ulcer activity, ulcers by stress in the rat, Protected rats %; for inhibition in vivo at 30 mg/kg / inhibition in vivo at 10 mg/kg: read-out: Anti-ulcer activity, ulcers by stress in the rat, Reduction in ulcers %; for responders at 10 mg/kg / inhibition in vivo at 10 mg/kg: 10 mg/kg ip
Description: The method described by Rossi and colleagues (Compt. Rend. Soc. Biol., 150, 2124, 1956) was followed in which the formation of gastric ulcers is induced by immobilising the animal, in a state of fast for 48 hours, in a net for a period of 4 hours.
The protection given by treatment with the drug under examination before the beginning of the constriction period is evaluated by counting both the ulcers and the number of subjects without ulcers.

[5] = Inhibition of spontaneous motility in the mouse; format: in vivo; conditions: for ED50: po, 0.5 h, read-out: Spontaneous motility inhibition mouse ED50
Description: This is evaluated by an actophotometric method, which consists of placing the mice, 30 minutes after oral treatment with the drug or the carrier, in a cage provided with a photoelectric cell counter and counting the number of times the photoelectric cell is passed during a 10 minute stay.

[6] = Acute toxicity under LD50 mouse; conditions: in vivo, ip
[7] = Pinching the tail of the mouse (systemic analgesic activity); format: in vivo; conditions: po, 0.5 h; for inhibition in vivo at 200 mg/kg: 200 mg/kg os; for inhibition in vivo at 100 mg/kg: 100 mg/kg os
Description: To evaluate the analgesic activity, the method described by Bianchi and colleagues (Brit. J. Pharmacol., 9, 280, 1954) was followed which consists of applying an arterial pincer to the base of the tail in animals treated orally 30 minutes previously with the drug under examination, observing that the control animals react to the pain by squealing.

[8] = mouse, os, 30 minutes after treatment
[9] = rat, os, one hour before nor-adrenalin 0.5 mg/kg

SMILES | ED50 (nor-adrenalin; Rattus norvegicus) | inhibition in vivo at 200 mg/kg ([1]; mouse, 35 volt) | ED50 ([2]; mouse, os) | ED30 [3] | responders at 30 mg/kg ([4]; rat, 30 mg/kg ip) | inhibition in vivo at 30 mg/kg ([4]; rat, 30 mg/kg ip) | ED50 [5, 8] | LD50 [6] | inhibition in vivo at 200 mg/kg ([7]; mouse, 30 minutes) | Anti-inflammatory activity carrageenin oedema rat, percentage activity (ED30 lacking) ([3]; 200 mg/kg ip) | responders at 10 mg/kg ([4]; rat) | inhibition in vivo at 10 mg/kg ([4]; rat) | also measured
Cn1c(-c2ccc(F)cc2)c(CCN2CCN(c3ccccc3)CC2)sc1=O [LR 652, 3-methyl-4-p-fluorophenyl-5-β-(N'-phenylpiperazino)-ethyl-4-thiazolin-2-one] | 13.3 mg/kg | 40% | 52.4 mg/kg | 163 mg/kg | 50% | 68% | 23 mg/kg | > 1000 mg/kg | 0% |  |  |  | 
O=c1[nH]c(-c2ccc(F)cc2)c(CCN2CCN(c3ccccc3)CC2)s1 [LR 599, 4-p-fluorophenyl-5-β-(N'-phenylpiperazino)ethyl-4-thiazolin-2-one] | 45 mg/kg | 0% | 200 mg/kg |  | 20% | 48% | 69.2 mg/kg | > 1000 mg/kg | 30% | 20% |  |  | 
O=c1[nH]c(-c2ccc(F)cc2)c(CCN2CCC(O)(c3ccc(Cl)cc3)CC2)s1 [LR 613, 4-p-fluorophenyl-5-β-[(4'-hydroxy-4'-p-chlorophenyl)-piperidino]-ethyl-4-thiazolin-2-one hydrochloride] |  |  |  |  |  |  |  | 300 mg/kg |  |  |  |  | α-adrenolytic activity lethal NA rat, percentage activity (ED50 lacking) (nor-adrenalin; rat, 15 mg/kg os): 20%; inhibition in vivo at 60 mg/kg ([1]; Mus musculus): 10%; ED50 ([2]; Mus musculus): 32.4 mg/kg; Anti-inflammatory activity carrageenin oedema rat, percentage activity (ED30 lacking) ([3]; 60 mg/kg ip): 15.2%; responders at 30 mg/kg ([4]; Rattus norvegicus, ip): 60%; inhibition in vivo at 30 mg/kg ([4]; Rattus norvegicus, ip): 80%; ED50 ([5]; Mus musculus): 18 mg/kg; inhibition in vivo at 60 mg/kg ([7]; Mus musculus, read-out: Systemic analgesic activity, tail pinching in mouse, %): 10%
O=c1[nH]c(-c2ccc(F)cc2)c(CCN2CCC3(CC2)OCCCCO3)s1 [LR 648, 4-p-fluorophenyl-5-β-[7,12-dioxa-3-azaspiro[5,6]-dodec-3-yl]-ethyl-4-thiazolin-2-one hydrochloride] |  |  |  |  |  |  |  | 125 mg/kg |  |  | 10% | 32% | α-adrenolytic activity lethal NA rat, percentage activity (ED50 lacking) (nor-adrenalin; rat, 7 mg/kg os): 0%; inhibition in vivo at 26 mg/kg ([1]; mouse, 26 mg/kg os, 35 volt): 20%; Spontaneous motility inhibition mouse, percentage activity (ED50 lacking) ([5]; mouse, 26 mg/kg os): 20%; inhibition in vivo at 26 mg/kg ([7]; mouse, 26 mg/kg os, 30 minutes): 0%
COc1ccc(-c2[nH]c(=O)sc2CCN2CCN(c3ccccc3)CC2)cc1 [LR 639, 4-p-methoxyphenyl-5-β-(N'-phenylpiperazino)ethyl-4-thiazolin-2-one] | 45 mg/kg | 0% | 88 mg/kg |  |  |  | 33 mg/kg | > 1000 mg/kg | 0% | 8.1% | 30% | 28% | 
O=c1[nH]c(-c2ccc(Cl)cc2)c(CN2CCCCC2)s1 [LR 659, 4-p-chlorophenyl-5-piperidinomethyl-4-thiazolin-2-one] |  | 30% |  |  |  |  |  | > 1000 mg/kg | 0% |  | 50% | 50% | 
O=c1[nH]c(-c2ccc(Cl)cc2)c(CN2CCN(c3ccccc3)CC2)s1 [LR 660, 4-p-chlorophenyl-5-(N'-phenylpiperazino)methyl-4-thiazolin-2-one] |  | 20% |  |  |  |  | 100 mg/kg | > 1000 mg/kg |  |  | 50% | 50% | 
CN(CCc1ccccc1)CCc1sc(=O)[nH]c1-c1ccccc1.O=C(O)/C=C\C(=O)O [LR 630, 4-phenyl-5-β-(N-methylphenylethylamino)ethyl-4-thiazolin-2-one maleate] |  |  | 180 mg/kg | 145 mg/kg | 10% | 0% | 60 mg/kg | 750 mg/kg |  |  |  |  | ED50 (nor-adrenalin; [9]): 16 mg/kg; inhibition in vivo at 180 mg/kg ([1]; mouse, 180 mg/kg os, 35 volt): 10%; inhibition in vivo at 180 mg/kg ([7]; mouse, 180 mg/kg os, 30 minutes): 0%
O=c1[nH]c(-c2ccccc2)c(CCN2CCN(c3ccccc3)CC2)s1 [LR 637, 4-phenyl-5-β-(N'-phenylpiperazino)ethyl-4-thiazolin-2-one] | 18 mg/kg | 20% | 200 mg/kg |  |  |  | 200 mg/kg | 1000 mg/kg | 30% | 11.6% | 57% | 86% | 
CN(CCc1ccccc1)CCc1sc(=O)[nH]c1-c1ccc(Cl)cc1.O=C(O)/C=C\C(=O)O [LR 628, 4-p-chlorophenyl-5-β-(N-methylphenylethylamino)ethyl-4-thiazolin-2-one maleate] |  |  |  | 35 mg/kg | 0% | 0% | 100 mg/kg | 400 mg/kg |  |  |  |  | ED50 (nor-adrenalin; [9]): 8 mg/kg; inhibition in vivo at 100 mg/kg ([1]; mouse, 35 volt): 0%; inhibition in vivo at 100 mg/kg ([7]; mouse, 30 minutes): 0%
CN(CCc1ccccc1)CCc1sc(=O)[nH]c1-c1ccc(F)cc1.O=C(O)/C=C\C(=O)O [LR 616, 4-p-fluorophenyl-5-β-(N-methylphenylethylamino)ethyl-4-thiazolin-2-one maleate] |  |  |  | 54 mg/kg | 10% | 0% | 40 mg/kg | 225 mg/kg |  |  |  |  | ED50 (nor-adrenalin; [9]): 5.5 mg/kg; inhibition in vivo at 40 mg/kg ([1]; mouse, 40 mg/kg os, 35 volt): 0%; Cataleptic activity mouse, percentage activity (ED50 lacking) ([2]; mouse, 40 mg/kg os): 0%; inhibition in vivo at 40 mg/kg ([7]; mouse, 40 mg/kg os, 30 minutes): 0%
CC(=O)n1c(-c2ccc(F)cc2)c(CCN2CCN(c3ccccc3)CC2)sc1=O [LR 653, 3-acetyl-4-p-fluorophenyl-5-β-(N'-phenylpiperazino)-ethyl-4-thiazolin-2-one] | 12.8 mg/kg |  | 80 mg/kg |  |  |  | 11.6 mg/kg | 420 mg/kg |  |  |  |  | inhibition in vivo at 100 mg/kg ([1]; mouse, 35 volt): 20%; Anti-inflammatory activity carrageenin oedema rat, percentage activity (ED30 lacking) ([3]; 100 mg/kg ip): 25.4%; inhibition in vivo at 100 mg/kg ([7]; mouse, 30 minutes): 20%
O=c1[nH]c(-c2ccc(Cl)cc2)c(CCN2CCN(c3ccccc3)CC2)s1 [LR 638, 4-p-chlorophenyl-5-β-(N'-phenylpiperazino)ethyl-4-thiazolin-2-one] |  | 10% | 200 mg/kg |  |  |  | 200 mg/kg | > 1000 mg/kg | 10% | 14% | 60% | 63% | α-adrenolytic activity lethal NA rat, percentage activity (ED50 lacking) (nor-adrenalin; rat, 50 mg/kg os): 0%
